Data from the NIST ThermoML archive (doi:10.1021/je700640r).
Numbers after ± are expanded uncertainties.

Test: activity coefficient (dimensionless); of the first substance listed, at infinite dilution; xn = mol fraction of the nth substance listed
Conditions: Liquid, Chromatography, x1 = 0

activity coefficient (303.15 K)	activity coefficient (313.15 K)	activity coefficient (323.15 K)	activity coefficient (333.15 K)	activity coefficient (343.15 K)	activity coefficient (353.15 K)	activity coefficient (363.15 K)	Compound
4.17 ± 0.36	3.87 ± 0.33	3.47 ± 0.3	3.07 ± 0.26	2.62 ± 0.23	2.38 ± 0.2	2.03 ± 0.17	CC(C)CO [2-methyl-1-propanol] + CCC[n+]1ccn(C)c1C.F[B-](F)(F)F
	4.91 ± 0.42	4.46 ± 0.39	4.18 ± 0.36	3.78 ± 0.33	3.42 ± 0.29	3.02 ± 0.26	CC(C)CCO [3-methylbutan-1-ol] + CCC[n+]1ccn(C)c1C.F[B-](F)(F)F
1.4 ± 0.12	1.39 ± 0.12	1.38 ± 0.12	1.37 ± 0.12	1.36 ± 0.11	1.35 ± 0.11	1.34 ± 0.11	CC#N [acetonitrile] + CCC[n+]1ccn(C)c1C.F[B-](F)(F)F
5.05 ± 0.44	4.67 ± 0.4	4.2 ± 0.36	3.73 ± 0.32	3.2 ± 0.28	2.67 ± 0.23	2.27 ± 0.2	CCCCO [butan-1-ol] + CCC[n+]1ccn(C)c1C.F[B-](F)(F)F
4.28 ± 0.37	3.99 ± 0.34	3.67 ± 0.32	3.3 ± 0.28	2.87 ± 0.25	2.5 ± 0.22	2.13 ± 0.18	CCC(C)O (configuration not stated) [butan-2-ol] + CCC[n+]1ccn(C)c1C.F[B-](F)(F)F
1.67 ± 0.14	1.74 ± 0.15	1.84 ± 0.16	1.93 ± 0.17	2.01 ± 0.17	2.09 ± 0.18	2.17 ± 0.19	ClCCl [dichloromethane] + CCC[n+]1ccn(C)c1C.F[B-](F)(F)F
1.86 ± 0.16	1.68 ± 0.14	1.6 ± 0.14	1.51 ± 0.13	1.44 ± 0.12	1.35 ± 0.11	1.18 ± 0.098	CCO [ethanol] + CCC[n+]1ccn(C)c1C.F[B-](F)(F)F
8.86 ± 0.77	8.84 ± 0.76	8.79 ± 0.76	8.75 ± 0.76	8.71 ± 0.75	8.66 ± 0.75	8.63 ± 0.74	CCOC(C)=O [ethyl acetate] + CCC[n+]1ccn(C)c1C.F[B-](F)(F)F
0.898 ± 0.074	0.869 ± 0.072	0.823 ± 0.069	0.777 ± 0.065	0.713 ± 0.061	0.684 ± 0.059	0.642 ± 0.056	CO [methanol] + CCC[n+]1ccn(C)c1C.F[B-](F)(F)F
	6.2 ± 0.54	5.31 ± 0.46	4.65 ± 0.4	4.05 ± 0.35	3.68 ± 0.32	3.12 ± 0.27	CCCCCO [pentan-1-ol] + CCC[n+]1ccn(C)c1C.F[B-](F)(F)F
3.26 ± 0.28	3.01 ± 0.26	2.81 ± 0.24	2.59 ± 0.22	2.37 ± 0.2	2.19 ± 0.19	1.88 ± 0.16	CCCO [propan-1-ol] + CCC[n+]1ccn(C)c1C.F[B-](F)(F)F
2.62 ± 0.23	2.53 ± 0.22	2.45 ± 0.21	2.33 ± 0.2	2.21 ± 0.19	2.04 ± 0.18	1.86 ± 0.16	CC(C)O [propan-2-ol] + CCC[n+]1ccn(C)c1C.F[B-](F)(F)F
6.03 ± 0.52	5.98 ± 0.52	5.95 ± 0.51	5.92 ± 0.51	5.88 ± 0.51	5.82 ± 0.5	5.78 ± 0.5	C1CCOC1 [tetrahydrofuran] + CCC[n+]1ccn(C)c1C.F[B-](F)(F)F
1.14 ± 0.094	1.29 ± 0.11	1.4 ± 0.12	1.52 ± 0.13	1.65 ± 0.14	1.78 ± 0.15	1.91 ± 0.16	ClC(Cl)Cl [trichloromethane] + CCC[n+]1ccn(C)c1C.F[B-](F)(F)F

Compound	activity coefficient (303.15 K)	activity coefficient (313.15 K)	activity coefficient (323.15 K)	activity coefficient (333.15 K)	activity coefficient (343.15 K)	activity coefficient (353.15 K)	activity coefficient (363.15 K)
C1COCCO1 [1,4-dioxane] + CCC[n+]1ccn(C)c1C.F[B-](F)(F)F	2.96 ± 0.26	3.08 ± 0.27	3.14 ± 0.27	3.17 ± 0.27	3.24 ± 0.28	3.29 ± 0.28	3.35 ± 0.29
CC(C)=O [acetone] + CCC[n+]1ccn(C)c1C.F[B-](F)(F)F	2.47 ± 0.21	2.53 ± 0.22	2.55 ± 0.22	2.61 ± 0.23	2.66 ± 0.23	2.71 ± 0.23	2.74 ± 0.24
ClC(Cl)(Cl)Cl [tetrachloromethane] + CCC[n+]1ccn(C)c1C.F[B-](F)(F)F	8.11 ± 0.7	8.63 ± 0.74	9.13 ± 0.79	9.58 ± 0.83	10 ± 0.86	10.4 ± 0.9	10.7 ± 0.92
